# Data reported in a melting point compilation (Tetko et al.; mined from patent text by program, amines drawn as free bases though some values may be those of a salt).
row,Compound,melting point
1,CCCC[C@H](NC(=O)[C@H](CC(C)C)NC(=O)OCc1ccccc1)C(=O)CSC,80 to 82 °C
2,Cc1ccc(OC2CCN(C(=O)C(=O)Nc3ccc4[nH]c(=O)sc4c3)CC2)cc1,215 to 217 °C
3,O=[N+]([O-])c1ccc(-c2nc(-c3ccccn3)no2)cc1,211 to 213 °C
4,Cc1cc(=O)oc2cccc(SC(=O)N(C)C)c12,129 °C
5,Clc1ccc2c(c1)C(c1ccccc1Cl)=NCc1n[nH]cc1-2,142 to 144 °C
6,CCn1ncc2c1ncc1c(N3CCOCC3)nc3cc(C)nn3c12,179 to 180 °C
7,CC(C)Oc1c(C(=O)Nc2nnn[nH]2)sc2c1CS(=O)(=O)CC2,230 to 232 °C
8,CC1(C)CCCN(C(=O)[C@H]2C[C@H](S(=O)(=O)c3ccccc3)[C@@H](c3ccccc3F)N2)C1 (racemic),210 °C
9,COc1cc(N)c(Cl)cc1C(=O)NCC1CCN(CCCCCNC(=O)Nc2ccc(Cl)cc2)CC1,204 to 206 °C
10,O=C1C[C@H]2CCCC[C@]23c2cccn2CCN13 (relative stereo),122 to 123 °C
11,COC(=O)c1ccc(Cl)cc1OCC#N,73 to 76 °C
12,O=C1Nc2ccc(Oc3ccccc3)cc2SC(c2ccc3c(c2)OCO3)C1O (stereo unspecified),228 to 230 °C
13,CS(=O)(=O)c1cc(F)cc2c3c(n(Cc4ccc(Cl)cc4)c12)[C@@H](CC(=O)O)CC3,175 °C
14,O=C(O)Cc1c(C(=O)c2ccc(Cl)cc2)[nH]c2cc(Cl)ccc12,181 to 183 °C
15,CC(C)(C)NCC(O)COc1ccc2nc(S(N)(=O)=O)sc2c1 (stereo unspecified),195 to 196 °C
16,CN(C)S(=O)(=O)c1ccc2c(c1)C(=O)c1cc(Br)ccc1CC2,142 to 145 °C
17,CC(C(N)=O)c1ccc(-n2cc(Cl)cn2)c(Cl)c1 (stereo unspecified),131 to 132 °C
18,O=C(N[C@@H](Cc1c[nH]c2ccccc12)C(=O)O)C(CS)C(F)(F)F (stereo partly specified),144 to 147 °C
19,Cc1cc(Cl)ccc1N1C(=O)c2ccc(Cl)cc2C1=O,193 to 195 °C
20,CCCCn1c(=O)[nH]c2cccc(OCC3CO3)c21 (stereo unspecified),226 to 227 °C
21,COc1cccc(N2CCN(Cc3cn4cc(Cl)ccc4n3)CC2)c1,132 to 134 °C
22,O=C(NCc1ccccc1)c1oc(=O)c2ncccc2c1-c1ccccc1,188 to 189 °C
23,COc1ccc(S(=O)(=O)N2CCc3cccc(-c4ccc(F)c(F)c4)c32)cc1,180 to 181 °C
24,CCOC(=O)c1cnoc1-c1ccc(-c2ccccc2)cc1,73 to 75 °C
25,COCCNC(=O)c1cc2c(ccc3cnn(C[C@H](C)N)c32)o1,75 to 76 °C
26,CC(C)(C)[Si](C)(C)OC1C(n2ccc(=O)[nH]c2=O)OC(CO)C1(O)C#C[Si](C)(C)C (stereo unspecified),188 to 189 °C

row,Compound,melting point
1,O=C1NCCc2[nH]c3c(F)cccc3c21,255 to 257 °C
2,CCCc1c(CSc2nccc(OCC(=O)O)n2)ccc(C(C)=O)c1O,174 to 178 °C
3,COc1cc2c(-c3cc4cccnc4[nH]3)cn(CCN3CCOCC3)c2cc1OC,218 °C
4,COc1cccc(CN2CCc3cc(OCc4ccccc4)c(OC)cc3C2)c1,71 to 72 °C
5,CC(C)CCNC(=S)c1ccc2c(c1)N(C(C)CN1CCC[C@@H]1CO)c1ccccc1S2 (stereo partly specified),140 °C
6,CS(=O)c1onc(-c2ccccc2)c1-c1ccc(S(N)(=O)=O)cc1 (stereo unspecified),194 to 204 °C
7,Fc1ccc(C23COC(c4ccc(Cl)cc4)(OC2)OC3)cc1,251 to 252 °C
8,COC(=O)c1cccc(CN2C(=O)C3(COc4cc5c(cc43)OCCO5)c3ccccc32)c1 (stereo unspecified),89 to 97 °C
9,Cn1nc(-c2c(Cl)cccc2Cl)nc1-c1sc(Br)c(Cl)c1Cl,197 to 199 °C
10,CC(=O)NCc1ccc(CN2CCN(c3nccc(N(C)C)n3)CC2)cc1,152 to 155 °C
11,Cc1ccc(C)n1CCNC(=O)COc1ccc(Cl)cc1,75 to 77 °C
12,CCc1nn(C2CCCC2)c2c1CCN(c1ccc(OC)cc1)C2=O,64.7 °C
13,O=C1Nc2cc(Cl)ccc2N[C@H]1Cc1ccccc1,185 °C
14,COC(C)(CC(=O)Nc1cccc(OC(=O)NC(C)C)c1)OC,160 °C
15,CNC(=O)NC(NC(=O)C(Cl)(Cl)Cl)C(Cl)(Cl)Cl (stereo unspecified),209 to 210 °C
16,CCOC(=O)N(CC(=O)O)C(=O)c1c(Br)ccc2c(C(F)(F)F)c(OC)ccc12,167 to 168 °C
17,C=C(Cl)Cc1c(Cl)nc(NC=O)nc1Cl,113 to 115 °C
18,CCOC(=O)CC1C(=O)N(CC(C)(C)C)c2ccc(Cl)cc2N(c2ccccc2Cl)C1=O (stereo unspecified),152 to 153 °C
19,Nc1ccc2c(c1)SN(CCCCN1CCN(c3ncccn3)CC1)C2,150 to 151 °C
20,COCCCc1cc(N(C)Cc2sc(-c3ccc(C(F)(F)F)cc3)nc2C)ccc1OCC(=O)O,142 to 143 °C
21,CC(=NO)c1ccc2c(c1)CCc1c(O)cc(O)cc1S2,215 to 218 °C
22,O=C(NCc1ccccc1)c1ccnc(NC(=O)c2ccc(C(F)(F)F)cc2)c1,181 to 183 °C
23,COc1ccc(NC(=O)c2ccc(Br)o2)cc1N1CCN(C)CC1,125 to 127 °C
24,Oc1ncnc2c1CCOc1ccccc1-2,241 to 243 °C
25,C=Cc1ccc(OCc2ccccc2)cc1,68 to 69 °C
